Assay in all cases: Kinase selectivity, DiscoverX scanMAX Kinase assay panel (% control)
Type in all cases: binding

The target of assay [1] is T1, kinases of the scanMAX Kinase assay panel (Homo sapiens, UniProt P57078).
T1 construct: purchased DiscoverX Co. (contract measurement) scanMAX Kinase assay panel
T1 sequence (P57078 1-832): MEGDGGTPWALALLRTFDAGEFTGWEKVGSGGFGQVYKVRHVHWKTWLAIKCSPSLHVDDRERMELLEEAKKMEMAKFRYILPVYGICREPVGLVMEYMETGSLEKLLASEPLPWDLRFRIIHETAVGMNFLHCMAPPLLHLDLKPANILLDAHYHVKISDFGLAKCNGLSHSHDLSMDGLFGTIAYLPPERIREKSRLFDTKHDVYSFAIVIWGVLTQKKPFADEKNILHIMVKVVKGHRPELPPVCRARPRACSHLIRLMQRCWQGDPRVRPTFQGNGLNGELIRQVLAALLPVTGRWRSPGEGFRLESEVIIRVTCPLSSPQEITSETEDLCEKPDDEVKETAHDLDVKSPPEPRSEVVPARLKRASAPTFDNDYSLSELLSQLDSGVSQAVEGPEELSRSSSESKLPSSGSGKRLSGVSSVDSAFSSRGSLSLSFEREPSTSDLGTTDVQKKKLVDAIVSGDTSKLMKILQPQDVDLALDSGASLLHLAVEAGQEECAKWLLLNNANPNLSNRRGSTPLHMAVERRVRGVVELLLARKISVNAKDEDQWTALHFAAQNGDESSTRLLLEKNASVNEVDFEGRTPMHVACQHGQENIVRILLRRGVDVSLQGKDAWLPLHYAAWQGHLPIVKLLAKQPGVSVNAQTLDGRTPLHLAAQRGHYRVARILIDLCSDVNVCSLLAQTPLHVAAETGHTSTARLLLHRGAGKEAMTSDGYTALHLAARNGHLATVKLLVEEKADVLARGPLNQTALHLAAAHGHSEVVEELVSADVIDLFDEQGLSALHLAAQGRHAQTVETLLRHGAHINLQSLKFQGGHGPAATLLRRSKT
The settings on record: kinase RIPK4; 1 uM in DMSO. How it is done:
(§1) The following experiment was performed to evaluate the activity of the compounds of the present invention to inhibit many enzymes.
(§2) Particularly, the compounds of Examples 8, 64 and 104 were selected among all of those compounds of the invention. DiscoverX Co. was asked to measure the enzyme (kinase) selectivity, and the experiment was performed using scanMAX™ Kinase assay panel.
(§3) Wherein, the concentration of the drug treated to each enzyme was 1 uM in DMSO and the control percentage (% control) was determined by the following Equation 1. (example compound−positive control)/(negative control−positive control)×100 [Equation 1]
(§4) Herein, the positive control indicates the compound showing the % control of 0%, and the negative control indicates DMSO showing the % control of 100%. The enzyme selectivity in the present invention is defined as follows: When the % control for each enzyme is less than 35% (<35%), it is judged that the compound has the activity to the corresponding enzyme.

The target of assay [2] is T2, kinases of the scanMAX Kinase assay panel (Homo sapiens, UniProt P22455).
T2 construct: purchased DiscoverX Co. (contract measurement) scanMAX Kinase assay panel
The settings on record: FGFR4; 1 uM. How it is done:
as §1, §2, §3, §4

Assay [3] deals with T3, kinases of the scanMAX Kinase assay panel (Homo sapiens, UniProt P20794).
T3 construct: purchased DiscoverX Co. (contract measurement) scanMAX Kinase assay panel
T3 sequence (P20794 1-623): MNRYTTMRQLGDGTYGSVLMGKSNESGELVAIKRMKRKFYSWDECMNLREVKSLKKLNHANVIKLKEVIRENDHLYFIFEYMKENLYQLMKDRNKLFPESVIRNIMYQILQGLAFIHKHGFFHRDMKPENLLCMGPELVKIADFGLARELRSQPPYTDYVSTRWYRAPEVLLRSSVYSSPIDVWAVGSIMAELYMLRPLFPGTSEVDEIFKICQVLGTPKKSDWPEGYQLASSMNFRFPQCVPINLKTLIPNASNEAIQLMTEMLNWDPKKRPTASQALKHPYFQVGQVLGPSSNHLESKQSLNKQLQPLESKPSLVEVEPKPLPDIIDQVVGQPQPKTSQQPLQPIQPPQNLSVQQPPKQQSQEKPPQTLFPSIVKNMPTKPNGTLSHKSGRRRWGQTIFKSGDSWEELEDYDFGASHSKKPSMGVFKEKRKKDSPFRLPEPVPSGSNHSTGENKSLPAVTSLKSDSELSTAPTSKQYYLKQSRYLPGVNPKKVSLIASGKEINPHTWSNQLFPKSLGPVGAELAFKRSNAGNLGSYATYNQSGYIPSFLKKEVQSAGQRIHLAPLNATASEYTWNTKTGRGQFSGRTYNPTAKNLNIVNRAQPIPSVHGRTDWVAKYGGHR
The settings on record: MAK; 1 uM. The method, then:
as §1, §2, §3, §4

Assay [4] has as its target T4, kinases of the scanMAX Kinase assay panel (Homo sapiens, UniProt Q9Y2I7).
T4 construct: purchased DiscoverX Co. (contract measurement) scanMAX Kinase assay panel
The settings on record: PIKFYVE; 1 uM. How it is done: as §1, §2, §3, §4

Assay [5] concerns the target T5, kinases of the scanMAX Kinase assay panel (Homo sapiens, UniProt Q8IVH8).
T5 construct: purchased DiscoverX Co. (contract measurement) scanMAX Kinase assay panel
T5 sequence (Q8IVH8 1-894): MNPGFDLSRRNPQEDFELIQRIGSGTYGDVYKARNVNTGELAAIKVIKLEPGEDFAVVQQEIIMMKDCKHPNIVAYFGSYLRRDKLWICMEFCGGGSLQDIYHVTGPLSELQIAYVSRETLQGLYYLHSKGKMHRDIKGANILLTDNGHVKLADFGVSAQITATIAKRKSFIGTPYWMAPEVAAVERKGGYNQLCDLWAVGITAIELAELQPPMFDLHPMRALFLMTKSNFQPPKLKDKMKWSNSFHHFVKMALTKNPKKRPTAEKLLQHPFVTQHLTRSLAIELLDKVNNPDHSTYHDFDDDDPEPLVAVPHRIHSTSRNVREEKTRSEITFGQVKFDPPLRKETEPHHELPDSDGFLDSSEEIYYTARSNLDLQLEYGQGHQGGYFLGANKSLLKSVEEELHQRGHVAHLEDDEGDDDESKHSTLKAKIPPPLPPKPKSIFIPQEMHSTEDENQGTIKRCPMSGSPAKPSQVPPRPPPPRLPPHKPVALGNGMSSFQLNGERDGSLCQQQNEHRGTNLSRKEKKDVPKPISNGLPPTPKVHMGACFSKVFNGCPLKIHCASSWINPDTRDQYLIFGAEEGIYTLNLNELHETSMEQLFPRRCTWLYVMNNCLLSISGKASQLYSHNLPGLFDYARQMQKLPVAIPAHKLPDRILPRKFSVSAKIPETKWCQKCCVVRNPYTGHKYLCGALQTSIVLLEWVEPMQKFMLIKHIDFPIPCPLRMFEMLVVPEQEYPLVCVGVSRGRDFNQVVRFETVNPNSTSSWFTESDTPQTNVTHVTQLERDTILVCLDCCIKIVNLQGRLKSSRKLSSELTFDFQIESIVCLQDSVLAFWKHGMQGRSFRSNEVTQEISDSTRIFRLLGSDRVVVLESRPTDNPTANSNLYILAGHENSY
The settings on record: MAP4K3; 1 uM. How it is done: as §1, §2, §3, §4

Assay [6] has as its target T6, kinases of the scanMAX Kinase assay panel (Homo sapiens, UniProt Q9Y5S2).
T6 construct: purchased DiscoverX Co. (contract measurement) scanMAX Kinase assay panel
The settings on record: MRCKB; 1 uM. The method, then:
as §1, §2, §3, §4

Remaining binding data for three molecules are collected here from patent publication US11208412B2 (DAEGU-GYEONGBUK MEDICAL INNOVATION FOUNDATION, priority 2017, dated 2021).

T4 sequence (Q9Y2I7 whole entry): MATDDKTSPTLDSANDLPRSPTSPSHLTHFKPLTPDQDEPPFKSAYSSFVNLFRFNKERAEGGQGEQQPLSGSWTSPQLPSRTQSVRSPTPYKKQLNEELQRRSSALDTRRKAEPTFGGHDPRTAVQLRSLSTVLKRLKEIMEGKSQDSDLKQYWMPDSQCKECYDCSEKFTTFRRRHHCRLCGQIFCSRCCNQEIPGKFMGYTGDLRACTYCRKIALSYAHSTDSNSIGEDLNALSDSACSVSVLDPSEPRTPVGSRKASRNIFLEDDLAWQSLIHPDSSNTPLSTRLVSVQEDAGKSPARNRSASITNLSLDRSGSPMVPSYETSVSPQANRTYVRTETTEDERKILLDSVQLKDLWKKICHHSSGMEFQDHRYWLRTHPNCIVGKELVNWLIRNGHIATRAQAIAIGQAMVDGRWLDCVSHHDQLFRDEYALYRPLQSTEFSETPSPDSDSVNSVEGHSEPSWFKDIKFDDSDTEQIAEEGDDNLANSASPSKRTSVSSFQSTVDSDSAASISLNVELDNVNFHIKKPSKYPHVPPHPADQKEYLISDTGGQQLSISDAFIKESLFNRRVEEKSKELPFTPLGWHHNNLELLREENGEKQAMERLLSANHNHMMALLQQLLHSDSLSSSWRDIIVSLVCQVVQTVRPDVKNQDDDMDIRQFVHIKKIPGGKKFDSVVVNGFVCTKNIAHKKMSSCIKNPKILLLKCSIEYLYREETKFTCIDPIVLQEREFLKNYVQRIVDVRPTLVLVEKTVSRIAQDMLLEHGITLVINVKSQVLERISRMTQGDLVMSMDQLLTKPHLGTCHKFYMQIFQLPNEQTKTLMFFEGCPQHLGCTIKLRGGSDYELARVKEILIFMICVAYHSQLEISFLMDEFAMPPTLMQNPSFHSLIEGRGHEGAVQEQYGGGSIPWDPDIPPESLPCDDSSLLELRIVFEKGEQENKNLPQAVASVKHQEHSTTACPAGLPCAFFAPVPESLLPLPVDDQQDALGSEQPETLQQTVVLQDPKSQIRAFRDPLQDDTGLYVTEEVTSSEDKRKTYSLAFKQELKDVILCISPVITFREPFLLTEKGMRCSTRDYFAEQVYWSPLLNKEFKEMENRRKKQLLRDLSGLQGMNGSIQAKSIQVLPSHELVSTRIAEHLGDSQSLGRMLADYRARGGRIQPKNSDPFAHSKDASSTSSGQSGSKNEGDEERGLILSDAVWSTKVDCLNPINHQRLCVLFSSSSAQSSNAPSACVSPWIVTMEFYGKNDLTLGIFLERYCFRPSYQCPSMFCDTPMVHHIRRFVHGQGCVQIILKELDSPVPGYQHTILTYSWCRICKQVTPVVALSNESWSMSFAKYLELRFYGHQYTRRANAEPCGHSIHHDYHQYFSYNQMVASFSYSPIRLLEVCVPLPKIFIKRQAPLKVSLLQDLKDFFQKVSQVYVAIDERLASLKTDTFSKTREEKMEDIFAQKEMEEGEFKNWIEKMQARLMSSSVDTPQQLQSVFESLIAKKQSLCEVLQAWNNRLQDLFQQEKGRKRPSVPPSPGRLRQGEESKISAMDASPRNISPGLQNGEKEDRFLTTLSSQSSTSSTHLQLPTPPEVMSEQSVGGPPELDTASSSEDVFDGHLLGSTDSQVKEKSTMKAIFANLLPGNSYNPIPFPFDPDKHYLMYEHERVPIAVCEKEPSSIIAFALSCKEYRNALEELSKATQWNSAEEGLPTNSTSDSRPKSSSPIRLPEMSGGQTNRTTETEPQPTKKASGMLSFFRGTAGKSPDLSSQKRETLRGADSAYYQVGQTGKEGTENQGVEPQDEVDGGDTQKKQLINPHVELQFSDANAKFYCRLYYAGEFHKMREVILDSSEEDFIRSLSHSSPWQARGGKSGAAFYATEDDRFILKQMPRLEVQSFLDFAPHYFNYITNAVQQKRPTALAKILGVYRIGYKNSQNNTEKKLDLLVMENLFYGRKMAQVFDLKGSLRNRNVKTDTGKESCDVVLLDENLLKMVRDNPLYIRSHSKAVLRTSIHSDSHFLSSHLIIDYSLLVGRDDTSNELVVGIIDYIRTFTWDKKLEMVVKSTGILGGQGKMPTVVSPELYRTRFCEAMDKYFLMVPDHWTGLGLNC
T6 sequence (Q9Y5S2 whole entry): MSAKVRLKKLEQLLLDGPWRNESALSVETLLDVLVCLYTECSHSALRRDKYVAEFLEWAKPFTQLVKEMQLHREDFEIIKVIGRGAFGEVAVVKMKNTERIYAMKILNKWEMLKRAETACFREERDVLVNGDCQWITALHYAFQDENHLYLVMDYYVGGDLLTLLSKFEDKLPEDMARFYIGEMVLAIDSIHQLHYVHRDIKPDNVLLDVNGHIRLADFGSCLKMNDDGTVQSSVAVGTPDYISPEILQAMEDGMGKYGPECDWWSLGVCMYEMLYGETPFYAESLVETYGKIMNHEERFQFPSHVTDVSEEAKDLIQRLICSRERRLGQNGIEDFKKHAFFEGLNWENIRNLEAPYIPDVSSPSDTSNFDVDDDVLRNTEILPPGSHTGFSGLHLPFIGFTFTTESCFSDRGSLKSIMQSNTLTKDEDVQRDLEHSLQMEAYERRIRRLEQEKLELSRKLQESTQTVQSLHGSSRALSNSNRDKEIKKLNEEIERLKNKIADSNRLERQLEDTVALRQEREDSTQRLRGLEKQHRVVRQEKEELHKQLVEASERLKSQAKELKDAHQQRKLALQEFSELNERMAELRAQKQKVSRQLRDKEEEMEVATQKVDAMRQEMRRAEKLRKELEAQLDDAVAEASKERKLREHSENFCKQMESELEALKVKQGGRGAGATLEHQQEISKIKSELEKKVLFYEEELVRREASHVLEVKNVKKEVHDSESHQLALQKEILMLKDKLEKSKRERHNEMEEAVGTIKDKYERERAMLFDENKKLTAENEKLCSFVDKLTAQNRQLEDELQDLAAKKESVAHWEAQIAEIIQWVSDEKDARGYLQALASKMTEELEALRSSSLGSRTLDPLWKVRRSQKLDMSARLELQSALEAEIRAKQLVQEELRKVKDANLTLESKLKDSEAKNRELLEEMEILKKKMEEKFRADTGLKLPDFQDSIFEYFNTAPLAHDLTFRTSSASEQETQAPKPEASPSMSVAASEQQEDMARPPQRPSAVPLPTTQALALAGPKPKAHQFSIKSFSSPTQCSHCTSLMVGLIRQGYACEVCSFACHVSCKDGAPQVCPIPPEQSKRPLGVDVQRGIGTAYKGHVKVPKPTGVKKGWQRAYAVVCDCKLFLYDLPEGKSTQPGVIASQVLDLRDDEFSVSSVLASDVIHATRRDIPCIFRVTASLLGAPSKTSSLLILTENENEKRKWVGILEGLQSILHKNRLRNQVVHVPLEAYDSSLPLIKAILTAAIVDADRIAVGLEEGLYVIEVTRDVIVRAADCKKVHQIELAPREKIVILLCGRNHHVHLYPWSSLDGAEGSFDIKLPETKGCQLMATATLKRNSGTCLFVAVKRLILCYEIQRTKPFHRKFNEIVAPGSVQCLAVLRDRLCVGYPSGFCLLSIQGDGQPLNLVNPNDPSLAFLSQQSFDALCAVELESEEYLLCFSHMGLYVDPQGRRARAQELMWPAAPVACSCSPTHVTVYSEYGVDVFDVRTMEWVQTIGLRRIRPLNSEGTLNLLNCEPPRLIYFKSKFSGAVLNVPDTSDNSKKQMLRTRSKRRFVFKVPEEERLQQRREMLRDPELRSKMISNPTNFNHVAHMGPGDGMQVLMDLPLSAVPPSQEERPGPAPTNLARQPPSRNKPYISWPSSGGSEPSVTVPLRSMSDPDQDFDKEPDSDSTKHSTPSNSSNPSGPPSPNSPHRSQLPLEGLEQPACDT
T2 sequence (P22455 22-802): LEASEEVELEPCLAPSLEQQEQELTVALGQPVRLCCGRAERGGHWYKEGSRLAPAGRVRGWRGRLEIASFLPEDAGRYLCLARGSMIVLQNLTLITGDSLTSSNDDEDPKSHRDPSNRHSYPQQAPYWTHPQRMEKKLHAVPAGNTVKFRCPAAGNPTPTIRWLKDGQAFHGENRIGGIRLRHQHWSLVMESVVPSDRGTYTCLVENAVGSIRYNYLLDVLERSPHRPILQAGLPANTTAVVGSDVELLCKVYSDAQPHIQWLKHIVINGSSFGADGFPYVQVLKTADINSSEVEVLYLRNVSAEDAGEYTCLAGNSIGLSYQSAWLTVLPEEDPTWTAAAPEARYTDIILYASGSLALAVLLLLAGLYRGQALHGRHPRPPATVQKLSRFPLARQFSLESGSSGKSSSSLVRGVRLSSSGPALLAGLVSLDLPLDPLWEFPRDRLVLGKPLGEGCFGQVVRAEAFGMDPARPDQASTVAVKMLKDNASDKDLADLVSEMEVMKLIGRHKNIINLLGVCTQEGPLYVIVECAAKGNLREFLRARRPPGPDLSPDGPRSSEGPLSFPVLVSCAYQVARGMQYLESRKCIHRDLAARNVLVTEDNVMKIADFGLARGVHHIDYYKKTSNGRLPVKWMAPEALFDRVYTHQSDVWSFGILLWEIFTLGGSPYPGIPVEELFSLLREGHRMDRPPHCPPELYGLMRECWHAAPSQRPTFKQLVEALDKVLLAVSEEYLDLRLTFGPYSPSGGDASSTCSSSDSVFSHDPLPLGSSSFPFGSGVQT

For the molecule `CC1(Nc2nc(Nc3cnn([C@H]4CCN(C5COC5)C[C@@H]4F)c3Cl)nc3[nH]cc(C#N)c23)CC1` [Example 52, 2-((5-chloro-1-((3S,4S)-3-fluoro-1-(oxetane-3-yl)piperidine-4-yl)-1H-pyrazole-4-yl)amino)((1-methylcyclopropyl)amino)-7H-pyrrolo[2,3-d]pyrimidine-5-carbonitrile], the remaining binding at 1 µM in assay [1] was found to be 1.6%; in assay [2] it was 31%; in assay [3], 71%; in assay [4], 65%; in assay [5], 3.3%; in assay [6] it was 89%.

Regarding `CCNc1nc(Nc2ccc(C(=O)N3CCC(N4CCOCC4)CC3)cc2OC)nc2[nH]cc(C(F)(F)F)c12` [Example 104, (4-((4-(ethylamino)-5-(trifluoromethyl)-7H-pyrrolo[2,3-d]pyrimidine-2-yl)amino)-3-methoxyphenyl)(4-morpholinopiperidine-1-yl)methanone], the remaining binding at 1 µM is 0.6% in assay [1]; 38% in assay [2]; 100% in assay [3]; 100% in assay [4]; 100% in assay [5]; 100% in assay [6].

Regarding `CNc1nc(Nc2ccc(C(=O)N3CCOCC3)cc2OC)nc2[nH]cc(C#N)c12` [Example 1, 2-((2-methoxy-4-(morpholine-4-carbonyl)phenyl)amino)-4-(methylamino)-7H-pyrrolo[2,3-d]pyrimidine-5-carbonitrile], the remaining binding at 1 µM amounted to 72% in assay [1]; 89% in assay [2]; 95% in assay [3]; 73% in assay [4]; 97% in assay [5]; 100% in assay [6].
